From patent publication US9440933B2, “Azole derivative, method for producing same, intermediate compound, and agricultural or horticultural chemical agent and industrial material protecting agent” (KUREHA CORPORATION, priority 2011, dated 2016) come the findings set out here.

A value given as a limit tells only on which side of the number the result lay.

Data set [1] has as its system wheat. As to the kind of experiment: Damage (necrosis) to wheat by seed treatment (pot test). It counts as in vivo. As to conditions: 2 mg in DMSO applied to wheat seeds 1 g, 12 days after seeding. On the procedure: Damage (necrosis) to wheat was examined in a pot test. An inventive compound 1-2 and a comparative compound (1) were dissolved in DMSO (18 μl) respectively in an amount of 2 mg. The solution thus prepared was applied to wheat seeds 1 g in a vial and 8 seeds were seeded in a 80 cm^2 pot. The plant was grown in green house, as water was supplied from below, and the damage was determined 12 days after seeding.

The subject of data set [2] is wheat leaf blight-causing microbe. The data set is described as follows: Antimicrobial activity to wheat leaf blight-causing microbe (PDA plate, hyphal expansion inhibition). The format is cell-based, Septoria tritici. Particulars: 336 h, PDA medium, 25° C., 14 days; for inhibition at 50 µg/mL: Concentration 50 mg/L, read-out: Growth inhibition; for inhibition at 1.25 µg/mL: test sample concentration 1.25 mg/L, read-out: hyphal expansion-inhibiting rate. The method, then:
In this Test Example, antimicrobial activity of the inventive compounds to wheat leaf blight-causing microbe was determined and compared with that of the comparative compound (1).

Data set [3] relates to wheat leaf rust-causing microbe. As to the kind of experiment: Wheat leaf rust-controlling activity (foliar spray, pot test). It counts as in vivo, Puccinia recondita.
Data set [4] shares this test system. As to the kind of experiment: Control activity of wheat leaf rust by seed treatment (pot test). The format is in vivo, Puccinia recondita. Particulars: 2 mg in DMSO applied to wheat seeds 10 g, inoculated 21 days after seeding. On the procedure: Controlling activity to wheat leaf rust was examined in a pot test. […] The solution prepared was applied to wheat seeds 10 g in a vial and 8 wheat seeds were seeded in a 80 cm^2 pot. The seeds were grown in greenhouse, as water was supplied from below; a wheat leaf rust-causing microbe was inoculated 21 days after seeding; and the pot was stored in a constant-humidity box for 2 days. The plant was grown in green house, as water was supplied from below, and the incidence rate was determined and the controlling rate calculated […]. The controlling rate was calculated according to the equation below and used as the wheat leaf rust-controlling rate. Controlling rate=(1−Incidence rate in treated region/Incidence rate in non-treated region)×100(%)

Data set [5] concerns wheat. The data set is described as follows: Damage to wheat (growth inhibition) by seed treatment (pot test). As to conditions: 2 mg in DMSO applied to wheat seeds 1 g, 14 to 28 days after seeding, larger index = smaller damage.
The subject of data set [6] is wheat powdery mildew-causing microbes. As to the kind of experiment: Controlling activity to wheat powdery mildew of seed treatment (pot test). It counts as in vivo, Erysiphe graminis f. sp tritici. As to conditions: 2 mg in DMSO applied to wheat seeds 1 g, 14 to 28 days after seeding. In short, it runs like this:
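Wheat seeds (1 g) coated with 2 mg compound in 18 μl DMSO, sown 8 per pot and grown in a greenhouse under natural powdery mildew pressure with bottom watering. Incidence scored 14–28 days after seeding; controlling rate = (1 − treated/untreated incidence) × 100, plus controlling index.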

Data set [7] concerns Rice blast-causing microbe (Pyricularia oryzae). The format is cell-based. Particulars: 50 mg/L.
Data set [8] concerns Barley loose smut-causing microbe (Ustilago nuda). The data set is described as follows: Antimicrobial activity to various pathogenic microbes: U.n. Particulars: 50 mg/L.
Procedure: (§1) An inventive compound was dissolved in dimethylsulfoxide 2 ml. The solution 0.6 ml was added to a PDA medium (potato-dextrose-agar medium) 60 ml at around 60° C.
(§2) The plates were cultured at 25° C. for 14 days after inoculation and the diameter of the microbial colony was determined. Hyphal expansion-inhibiting rate was calculated according to the following equation: R=100(dc−dt)/dc (wherein, R: hyphal expansion-inhibiting rate (%), dc: diameter of microbial colony on non-treated flat plate, dt: diameter of microbial colony on chemically-treated flat plate).
(§3) The results thus obtained were evaluated in 5 stages according to the criteria below:
Barley loose smut-causing microbe (Ustilago nuda) U.n
Data set [9] deals with Apple alternaria blotch-causing microbe (Alternaria alternata). The data set is described as follows: Antimicrobial activity to various pathogenic microbes: A.m. Particulars: 50 mg/L.
Procedure: as §1
(§4) A flat plate containing a test microbe (wheat leaf blight-causing microbe) cultured separately was punched into pieces with a cork borer having a diameter of 4 mm and the circular plate obtained was placed on the flat plate media containing the chemical described above. The plates were cultured at 25° C. for 14 days after inoculation and the diameter of the microbial colony was determined. Hyphal expansion-inhibiting rate was calculated according to the following equation: R=100(dc−dt)/dc (wherein, R: hyphal expansion-inhibiting rate (%), dc: diameter of microbial colony on non-treated flat plate, dt: diameter of microbial colony on chemically-treated flat plate).
In this Test Example, the antimicrobial activity of the inventive compounds to various plant disease-causing fungi and industrial material-eroding microorganisms was studied by the method described in Example 1.
as §3
Apple alternaria blotch-causing microbe (Alternaria alternata) A.m
Data set [10] has as its system Wheat glume blotch-causing microbe (Phaeosphaeria nodorum). As to the kind of experiment: Antimicrobial activity to various pathogenic microbes: P.n. Particulars: 50 mg/L.
Data set [11] relates to Gray mold-causing microbe (Botrytis cinerea). The data set is described as follows: Antimicrobial activity to various pathogenic microbes: B.c. As to conditions: 50 mg/L.
Data set [12] deals with Rice bakanae disease-causing microbe (Gibberella fujikuroi). As to the kind of experiment: Antimicrobial activity to various pathogenic microbes: G.f. As to conditions: 50 mg/L.
Procedure: as §1, §4, §3
Data set [13] concerns Wheat fusarium blight-causing microbe (Fusarium graminearum). The format is cell-based. As to conditions: 50 mg/L.
Data set [14] has as its system Cucumber Fusarium wilt-causing microbe (Fusarium oxysporum). As to the kind of experiment: Antimicrobial activity to various pathogenic microbes: F.c. As to conditions: 50 mg/L.
Procedure: as §1, §4, §3
Data set [15] relates to Sclerotinia rot-causing microbe (Sclerotinia sclerotiorum). As to the kind of experiment: Antimicrobial activity to various pathogenic microbes: S.s. Particulars: 50 mg/L.
Procedure: as §1, §4, §3
Sclerotinia rot-causing microbe (Sclerotinia sclerotiorum) S.s
Data set [16] concerns Wheat eye spot-causing microbe (Pseudocercoporella herpotrichoides). As to the kind of experiment: Antimicrobial activity to various pathogenic microbes: P.h. As to conditions: 50 mg/L.
Procedure: as §1, §2, §3
Wheat eye spot-causing microbe (Pseudocercoporella herpotrichoides) P.h
For data set [17], the system named is Barley scald-causing microbe (Rhynchosporium secalis). The data set is described as follows: Antimicrobial activity to various pathogenic microbes: R.sec. Particulars: 50 mg/L.
The mark [18] stands for this setting: Concentration 25 g/ha, wettable powder sprayed on wheat (Norin No. 61), 9 to 14 days after inoculation.

As to `CC1(C)CC[C@H](Cc2ccc(Cl)cc2)[C@@]1(O)Cn1cncn1` (racemic) [Compound (1), (1RS,5SR)-5-(4-chlorobenzyl)-2-dimethyl-1-(1H-1,2,4-triazol-1-ylmethyl)cyclopentanol, reference compound], the “Damage (necrosis)” value with wheat [1] is “necrotic symptom”. In addition, in data set [2], the inhibition at 50 µg/mL is greater than 80% and the inhibition at 1.25 µg/mL was 60 to 80%. For the same compound, the Controlling index in [3] (setting [18]) is listed as 5 (81 to 100). The Controlling index in data set [3] (test sample concentration 1 g/ha, wettable powder sprayed on wheat) was 4 (61 to 80). Moreover, in [4], the “controlling rate (wheat leaf rust)” value was 88%. Further, the “Damage index Growth inhibition” value in the data set with wheat [5] is recorded as 0 (80% or more). For the same compound, the “Controlling index Wheat powdery mildew” value in data set [6] is reported as 5 (Controlling rate: 40 or more).
In the case of `COC(=O)[C@]1(C)CC[C@@H](Cc2ccc(Cl)cc2)[C@]1(O)Cn1cncn1` (racemic) [Compound I-2, methyl-(1RS,2RS,3SR)-3-(4-chlorobenzyl)-2-hydroxy-1-methyl-2-(1H-1,2,4-triazol-1-ylmethyl)cyclopentanecarboxylate], the “Growth inhibition (hyphal expansion-inhibiting rate grade) P.o” value in [7] is 5 (hyphal expansion-inhibiting rate: 80% or more). The “Growth inhibition (hyphal expansion-inhibiting rate grade) U.n” value in data set [8] is 5 (hyphal expansion-inhibiting rate: 80% or more). Moreover, the “Damage (necrosis)” value in the data set with wheat [1] is “no necrotic symptom”. Further, in data set [2], the inhibition at 50 µg/mL is greater than 80% and the inhibition at 1.25 µg/mL is no less than 80%. The “Growth inhibition (hyphal expansion-inhibiting rate grade) A.m” value in data set [9] is 5 (hyphal expansion-inhibiting rate: 80% or more). Besides, the “Growth inhibition (hyphal expansion-inhibiting rate grade) P.n” value in data set [10] is recorded as 5 (hyphal expansion-inhibiting rate: 80% or more). For the same compound, the Controlling index in [3] (setting [18]) is 5 (81 to 100). In [4], the “controlling rate (wheat leaf rust)” value was 95%. Also, in data set [11], the “Growth inhibition (hyphal expansion-inhibiting rate grade) B.c” value was 5 (hyphal expansion-inhibiting rate: 80% or more). For the same compound, the “Growth inhibition (hyphal expansion-inhibiting rate grade) G.f” value in data set [12] is on record as 5 (hyphal expansion-inhibiting rate: 80% or more). Also, the “Growth inhibition (hyphal expansion-inhibiting rate grade) F.g” value in [13] is reported as 5 (hyphal expansion-inhibiting rate: 80% or more). For the same compound, the “Damage index Growth inhibition” value with wheat [5] is 1 (60% or more and less than 80%). In data set [14], the “Growth inhibition (hyphal expansion-inhibiting rate grade) F.c” value was 5 (hyphal expansion-inhibiting rate: 80% or more). In addition, the “Growth inhibition (hyphal expansion-inhibiting rate grade) S.s” value in data set [15] was 5 (hyphal expansion-inhibiting rate: 80% or more). In addition, the “Growth inhibition (hyphal expansion-inhibiting rate grade) P.h” value in [16] was 5 (hyphal expansion-inhibiting rate: 80% or more). In [6], the “Controlling index Wheat powdery mildew” value is on record as 5 (Controlling rate: 40 or more). For the same compound, the “Growth inhibition (hyphal expansion-inhibiting rate grade) R.sec” value in [17] is 5 (hyphal expansion-inhibiting rate: 80% or more).
Take `COC(=O)[C@]1(C)CC[C@H](Cc2ccc(Cl)cc2)[C@@]1(O)Cn1cncn1` (racemic) [Compound I-132, methyl-(1RS,2SR,3RS)-3-(4-chlorobenzyl)-2-hydroxy-1-methyl-2-(1H-1,2,4-triazol-1-ylmethyl)cyclopentanecarboxylate]: the “Growth inhibition (hyphal expansion-inhibiting rate grade) P.o” value in data set [7] is listed as 5 (hyphal expansion-inhibiting rate: 80% or more). In data set [8], the “Growth inhibition (hyphal expansion-inhibiting rate grade) U.n” value is recorded as 5 (hyphal expansion-inhibiting rate: 80% or more). The inhibition at 50 µg/mL in data set [2] is greater than 80%. The “Growth inhibition (hyphal expansion-inhibiting rate grade) A.m” value in [9] is listed as 5 (hyphal expansion-inhibiting rate: 80% or more). Further, the “Growth inhibition (hyphal expansion-inhibiting rate grade) P.n” value in [10] is recorded as 5 (hyphal expansion-inhibiting rate: 80% or more). In addition, the Controlling index in data set [3] (setting [18]) is 5 (81 to 100). The “Growth inhibition (hyphal expansion-inhibiting rate grade) B.c” value in [11] was 5 (hyphal expansion-inhibiting rate: 80% or more). Also, in [12], the “Growth inhibition (hyphal expansion-inhibiting rate grade) G.f” value is on record as 5 (hyphal expansion-inhibiting rate: 80% or more). In addition, the “Growth inhibition (hyphal expansion-inhibiting rate grade) F.g” value in data set [13] was 5 (hyphal expansion-inhibiting rate: 80% or more). The “Damage index Growth inhibition” value with wheat [5] is given as 5. For the same compound, in data set [14], the “Growth inhibition (hyphal expansion-inhibiting rate grade) F.c” value was 5 (hyphal expansion-inhibiting rate: 80% or more). In data set [15], the “Growth inhibition (hyphal expansion-inhibiting rate grade) S.s” value was 5 (hyphal expansion-inhibiting rate: 80% or more). The “Growth inhibition (hyphal expansion-inhibiting rate grade) P.h” value in [16] was 5 (hyphal expansion-inhibiting rate: 80% or more). Also, the “Controlling index Wheat powdery mildew” value in data set [6] is on record as 5 (Controlling rate: 40 or more). For the same compound, the “Growth inhibition (hyphal expansion-inhibiting rate grade) R.sec” value in data set [17] is 5 (hyphal expansion-inhibiting rate: 80% or more).
